Assay results reported in patent publication US20240158418A1 (C4 Therapeutics, Inc., priority 2021, published 2024).

Legend:
[1] = biological target: T1, EGFR L858R-T790M (Homo sapiens, UniProt P00533, L858R/T790M); assay: EGFR degradation, Total EGFR (L858R-specific) HTRF, NCI-H1975; format: cell-based; settings: Table 9B; NCI-H1975 cells, 6 hours, Total EGFR HTRF; read-out: H1975 EGFR DC50
T1 construct: NCI-H1975 (harboring EGFR heterozygous L858R-T790M mutations); host or cells: NCI-H1975
Method in brief: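 FRET signal from HTRF kits measured phospho-EGFR at pY1068 or total EGFR after 6 h treatment at 37 °C. Compounds ran as 11-point half-log dilutions from 10 μM in duplicate, in cells in phenol red-free RPMI with 10% FBS. Concentrations giving 50% inhibition or degradation were reported as IC50 or DC50.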

[2] = biological target: T2, EGFR L858R-T790M-C797S (Homo sapiens, UniProt P00533, C797S/L858R/T790M); assay: EGFR degradation, Total EGFR (L858R-specific) HTRF, NCI-H1975+CS; format: cell-based; settings: Table 9B; NCI-H1975 C797S clone, 6 hours, Total EGFR HTRF; read-out: H1975 C797S clone EGFR DC50
T2 construct: generated using CRISPR technology to introduce the additional C797S mutation by Horizon Discovery; host or cells: NCI-H1975+CS (CRISPR knock-in of C797S)
Excerpt: NCI-H1975 (harboring EGFR heterozygous L858R-T790M mutations) and NCI-H3255 (harboring EGFR heterozygous L858R mutation) were purchased from ATCC and NCI, respectively. NCI-H1975+CS (harboring EGFR heterozygous L858R-T790M-C797S mutations) was generated using CRISPR technology to introduce the additional C797S mutation by Horizon Discovery. A431 (harboring EGFR wildtype) was purchased from ATCC. RPMI 1640 no-phenol red medium and fetal bovine serum (FBS) were purchased from Gibco (Grand Island, NY, USA). Cell culture flasks and 384-well microplates were acquired from VWR (Radnor, PA, USA). Phosphorylated (pY1068) EGFR and Total EGFR (using L858R-specific detection antibody and pan-EGFR antibody for EGFR mutant cell lines and EGFR wild-type cell lines, respectively) HTRF assay kits were purchased from Cisbio (Bedford, MA, USA).
Degradation of EGFR protein containing L858R mutation or wild-type was determined based on quantification of FRET signal using a Total EGFR (L858R-specific or pan-EGFR detecting) HTRF assay kit. Phospho-EGFR (pEGFR) inhibition was determined based on quantification of FRET signal using a pY1068 EGFR HTRF assay kit. In separate assay plates, test compounds were added to the 384-well plate from a top concentration of 10 μM with 11 points, half log titration in duplicates. For each assay, 12.5 uL of cells suspended in assay media (RPMI 1640 no-phenol red medium+10% FBS) at cell densities indicated for each cell line in Table 8 below were dispensed using a multi-channel pipette to 384-well low volume white HTRF microplates containing a duplicate concentration range of test compounds and DMSO controls. The plates were kept at 37° C. with 5% CO2 for 6 hours and then incubated with either phospho EGFR or Total EGFR HTRF detection antibodies according to the cell line and EGFR mutant being assayed. Cells treated in the absence of the test compound were the negative control. Positive control was set by wells containing all reagents but no cells. FRET signal was acquired on EnVision™ Multilabel Reader (PerkinElmer, Santa Clara, CA, USA). Compound concentration that achieves 50% degradation and inhibition was reported as DC50 and IC50, respectively.

T2 sequence (P00533 25-1210 T790M/C797S/L858R): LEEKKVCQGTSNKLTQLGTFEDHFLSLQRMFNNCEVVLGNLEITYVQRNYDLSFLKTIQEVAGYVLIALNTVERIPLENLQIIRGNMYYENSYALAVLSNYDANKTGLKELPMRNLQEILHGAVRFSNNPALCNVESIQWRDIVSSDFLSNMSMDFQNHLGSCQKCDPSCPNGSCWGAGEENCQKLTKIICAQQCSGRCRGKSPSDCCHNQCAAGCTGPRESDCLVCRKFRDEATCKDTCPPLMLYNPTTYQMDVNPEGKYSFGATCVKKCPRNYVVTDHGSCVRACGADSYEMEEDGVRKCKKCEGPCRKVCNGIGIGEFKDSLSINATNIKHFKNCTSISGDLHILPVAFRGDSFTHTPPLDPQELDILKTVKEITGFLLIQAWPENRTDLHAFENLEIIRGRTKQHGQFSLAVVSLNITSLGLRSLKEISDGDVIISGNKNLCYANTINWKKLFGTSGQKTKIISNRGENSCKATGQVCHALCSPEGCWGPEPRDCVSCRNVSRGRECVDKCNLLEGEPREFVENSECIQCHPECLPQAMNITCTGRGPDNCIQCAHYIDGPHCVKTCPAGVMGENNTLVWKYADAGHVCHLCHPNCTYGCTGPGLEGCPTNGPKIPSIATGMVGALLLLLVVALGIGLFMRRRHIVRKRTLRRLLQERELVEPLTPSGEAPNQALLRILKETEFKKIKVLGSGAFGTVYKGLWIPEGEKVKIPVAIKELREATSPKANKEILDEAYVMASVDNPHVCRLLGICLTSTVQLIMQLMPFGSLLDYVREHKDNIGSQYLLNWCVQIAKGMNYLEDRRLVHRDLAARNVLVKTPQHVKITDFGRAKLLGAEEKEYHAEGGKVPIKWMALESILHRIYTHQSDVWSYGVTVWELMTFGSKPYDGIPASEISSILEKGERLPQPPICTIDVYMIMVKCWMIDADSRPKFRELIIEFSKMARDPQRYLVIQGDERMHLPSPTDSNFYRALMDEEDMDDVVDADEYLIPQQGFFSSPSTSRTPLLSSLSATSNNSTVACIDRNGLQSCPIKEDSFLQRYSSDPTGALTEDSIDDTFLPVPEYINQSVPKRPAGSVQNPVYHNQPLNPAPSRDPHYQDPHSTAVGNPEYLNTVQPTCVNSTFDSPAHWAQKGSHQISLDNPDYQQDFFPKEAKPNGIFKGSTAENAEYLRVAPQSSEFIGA
T1 sequence (P00533 25-1210 T790M/L858R): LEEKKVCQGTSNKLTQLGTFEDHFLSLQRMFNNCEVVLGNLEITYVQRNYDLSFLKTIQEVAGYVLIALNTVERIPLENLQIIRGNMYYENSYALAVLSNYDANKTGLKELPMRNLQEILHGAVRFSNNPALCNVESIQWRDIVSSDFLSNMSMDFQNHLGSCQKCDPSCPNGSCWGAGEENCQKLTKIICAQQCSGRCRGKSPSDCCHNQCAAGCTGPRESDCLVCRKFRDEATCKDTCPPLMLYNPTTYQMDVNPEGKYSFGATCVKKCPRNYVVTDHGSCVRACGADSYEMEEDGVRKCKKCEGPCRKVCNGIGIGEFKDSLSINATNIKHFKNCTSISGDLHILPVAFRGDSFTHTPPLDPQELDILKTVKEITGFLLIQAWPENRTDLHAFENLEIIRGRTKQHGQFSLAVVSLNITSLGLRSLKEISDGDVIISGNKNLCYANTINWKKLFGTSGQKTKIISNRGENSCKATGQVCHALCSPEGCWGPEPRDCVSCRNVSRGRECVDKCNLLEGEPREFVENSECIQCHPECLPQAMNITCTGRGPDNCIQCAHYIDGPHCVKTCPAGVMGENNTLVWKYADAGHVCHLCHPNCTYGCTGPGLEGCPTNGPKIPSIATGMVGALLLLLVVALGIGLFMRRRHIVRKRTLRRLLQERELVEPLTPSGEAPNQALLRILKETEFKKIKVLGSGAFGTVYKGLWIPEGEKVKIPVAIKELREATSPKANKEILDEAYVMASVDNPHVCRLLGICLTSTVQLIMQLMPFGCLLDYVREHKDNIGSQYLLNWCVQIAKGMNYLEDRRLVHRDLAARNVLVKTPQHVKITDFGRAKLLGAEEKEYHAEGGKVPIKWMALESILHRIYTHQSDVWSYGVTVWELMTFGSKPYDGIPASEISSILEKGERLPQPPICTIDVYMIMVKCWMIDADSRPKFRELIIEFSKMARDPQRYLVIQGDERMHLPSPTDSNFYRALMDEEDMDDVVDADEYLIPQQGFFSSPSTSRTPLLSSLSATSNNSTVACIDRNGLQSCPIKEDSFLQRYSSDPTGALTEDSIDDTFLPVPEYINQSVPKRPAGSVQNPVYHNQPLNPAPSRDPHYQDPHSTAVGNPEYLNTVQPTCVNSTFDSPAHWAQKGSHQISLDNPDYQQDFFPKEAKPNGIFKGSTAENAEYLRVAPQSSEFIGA

SMILES | DC50 [1] [µM] | DC50 [2] [µM]
O=C1CCC(Nc2ccc(N3CCC(O)(CC(=O)N4CC5(C4)CN(c4ccc(-c6cc(F)c7c(c6)C(=O)N(C(C(=O)Nc6ccccn6)c6ncn8c6CCC8)C7)cc4)C5)CC3)c(F)c2)C(=O)N1 (stereo not drawn) [Compound 99, 2-(6,7-dihydro-5H-pyrrolo[1,2-c]imidazol-1-yl)-2-[6-[4-[2-[2-[1-[4-[(2,6-dioxo-3-piperidyl)amino]-2-fluoro-phenyl]-4-hydroxy-4-piperidyl]acetyl]-2,6-diazaspiro[3.3]heptan-6-yl]phenyl]-4-fluoro-1-oxo-isoindolin-2-yl]-N-(2-pyridyl)acetamide] | < 0.05 | < 0.05
O=C1CC[C@H](Nc2ccc(C3CCN(CC(=O)N4CC5(C4)CN(c4ccc(-c6ccc7cn(C(C(=O)Nc8nccs8)c8ncn9c8CCC9)nc7c6F)cn4)C5)CC3)c(F)c2)C(=O)N1 (stereo partly drawn) [Compound 69, 2-(6,7-dihydro-5H-pyrrolo[1,2-c]imidazol-1-yl)-2-[6-[6-[2-[2-[4-[4-[[(3S)-2,6-dioxo-3-piperidyl]amino]-2-fluoro-phenyl]-1-piperidyl]acetyl]-2,6-diazaspiro[3.3]heptan-6-yl]-3-pyridyl]-7-fluoro-indazol-2-yl]-N-thiazol-2-yl-acetamide] | < 0.05 | < 0.05
Cn1nc(N2CCC(=O)NC2=O)c2ccc(C3CCN(CC(=O)N4CC5(C4)CN(c4ccc(-c6ccc7cn(C(C(=O)Nc8nccs8)c8ncn9c8CCC9)nc7c6F)cn4)C5)CC3(F)F)cc21 (stereo not drawn) [Compound 70, 2-(6,7-dihydro-5H-pyrrolo[1,2-c]imidazol-1-yl)-2-[6-[6-[2-[2-[4-[3-(2,4-dioxohexahydropyrimidin-1-yl)-1-methyl-indazol-6-yl]-3,3-difluoro-1-piperidyl]acetyl]-2,6-diazaspiro[3.3]heptan-6-yl]-3-pyridyl]-7-fluoro-indazol-2-yl]-N-thiazol-2-yl-acetamide] | < 0.05 | < 0.05
Cn1nc(N2CCC(=O)NC2=O)c2ccc(C3CCN(CC(=O)N4CCC(NC(=O)c5ccc(C#Cc6cc(F)c7c(c6)C(=O)N(C(C(=O)Nc6nccs6)c6ncn8c6CCC8)C7)cn5)CC4)CC3(F)F)cc21 (stereo not drawn) [Compound 88, 5-[2-[2-[1-(6,7-dihydro-5H-pyrrolo[1,2-c]imidazol-1-yl)-2-oxo-2-(thiazol-2-ylamino)ethyl]-7-fluoro-3-oxo-isoindolin-5-yl]ethynyl]-N-[1-[2-[4-[3-(2,4-dioxohexahydropyrimidin-1-yl)-1-methyl-indazol-6-yl]-3,3-difluoro-1-piperidyl]acetyl]-4-piperidyl]pyridine-2-carboxamide] | < 0.05 | < 0.05
Cn1nc(N2CCC(=O)NC2=O)c2ccc(C3CCN(CC(=O)N4CCCN(c5ccc(-c6cc(F)c7c(c6)C(=O)N(C(C(=O)Nc6nccs6)c6ncn8c6CCC8)C7)cc5)CC4)CC3(F)F)cc21 (stereo not drawn) [Compound 91, 2-(6,7-dihydro-5H-pyrrolo[1,2-c]imidazol-1-yl)-2-(6-(4-(4-(2-(4-(3-(2,4-dioxotetrahydropyrimidin-1(2H)-yl)-1-methyl-1H-indazol-6-yl)-3,3-difluoropiperidin-1-yl)acetyl)-1,4-diazepan-1-yl)phenyl)-4-fluoro-1-oxoisoindolin-2-yl)-N-(thiazol-2-yl)acetamide] | < 0.05 | 0.05 to 0.15
O=C1CCC(Nc2ccc(N3CCC(O)(CC(=O)N4CCC(NC(=O)c5ccc(C#Cc6cc(F)c7c(c6)C(=O)N(C(C(=O)Nc6nccs6)c6ncn8c6CCC8)C7)cn5)CC4)CC3)c(F)c2)C(=O)N1 (stereo not drawn) [Compound 96, 5-((2-(1-(6,7-dihydro-5H-pyrrolo[1,2-c]imidazol-1-yl)-2-oxo-2-(thiazol-2-ylamino)ethyl)-7-fluoro-3-oxoisoindolin-5-yl)ethynyl)-N-(1-(2-(1-(4-((2,6-dioxopiperidin-3-yl)amino)-2-fluorophenyl)-4-hydroxypiperidin-4-yl)acetyl)piperidin-4-yl)picolinamide] | < 0.05 | < 0.05
